Measured values taken from patent publication US20200108032A1, “USE OF ISOFERULIC ACID, ISOFERULIC ACID-CONTAINING TRADITIONAL CHINESE MEDICINE EXTRACT AND CIMICIFUGAE RHIZOMA” (BEIJING DITAN HOSPITAL, CAPITAL MEDICAL UNIVERSITY, priority 2017, published 2020).

What was measured:
Assay type in all cases: in vivo, C57BL/6 mice
[1] = system: CIA arthritis mice; assay: Arthritis index of CIA arthritis mice; conditions: for arthritis index: MEAN ± SEM
Text: Test materials: bovine type II collagen acetic acid solution and complete Freund's adjuvant were purchased from Chondrex company; isoferulic acid was purchased from Tianjin Yifang Technology Co., Ltd.
(§1) Animals: C57BL/6 mice, purchased from Beijing Huafukang Biotechnology Co., Ltd.
Grouping: 24 C57BL/6 mice, male, 18-20 g, after 1 day of adaptive breeding, the mice were randomly divided into 4 groups: normal control group and CIA model group, 5 mice in each group; Cimicifugae rhizoma group and isoferulic acid group, 7 mice in each group.
Model preparation and drug administration: Prepared a 2 mg/ml bovine type II collagen acetic acid solution, took 2 ml of the overnighted bovine type II collagen acetic acid solution, mixed thoroughly with 2 ml of complete Freund's adjuvant and emulsified (operation on ice), and prepared the bovine type II collagen emulsion having a final concentration of 1 mg/ml. Each mouse was injected intradermally with 0.1 ml of the emulsion. 21 days after the first immunization, mice were given a second immunization for 21 days, starting from day 0 of the second immunization, the CIA model group was given 250 μL of distilled water by gavage and the Cimicifugae rhizoma group was given 250 μL of the Cimicifugae rhizoma decoction obtained in Preparation Example 1. The crude drug dose was 2 g/kg; 250 μL of an aqueous solution of isoferulic acid was administered by gavage in the isoferulic acid group at a dose of 5 mg/kg, administered once every 3 days, and bred continuously for 21 days.
Animals were scored using the joint scoring method (grades 0-4), and the assessment was based on the degree of joint redness and swelling and joint swelling and deformation. 0 point: no redness and swelling; 1 point: redness but no swelling of the joint; 2 points: mild redness and swelling of the joint; 3 points: moderate redness and swelling of the joint; 4 points: severe redness and swelling of the joint accompanied by dysfunction of the joint. Each limb was scored separately, and the sum of the scores of each limb is the arthritis index of the mouse. The highest score is 16 points. The higher the score, the more severe the joint symptoms.

[2] = system: granulocytes and NK cells; assay: Proliferation (Ki-67) of granulocytes and NK cells in CIA arthritis mice (flow cytometry); conditions: intracellular Ki-67 expression; 21 days after second immunization; MEAN ± SEM
Text: Test materials and animals: CD3-PerCP, NK1.1-APC antibody, Ki67-PE antibody, Intracellular Fixation & Permeabilization Buffer Set were purchased from eBioscience; CD48 PE, CD11b FITC and B220-FITC antibodies were purchased from BD Pharmingen company; other required reagents were the same as in Example 7.
Model preparation and drug administration: the administration dose of each treatment group was the same as that of Experimental Example 3. 21 days after the second immunization, the mice were anesthetized.
Animal: C57BL/6 mice, purchased from Beijing Huafukang Biotechnology Co., Ltd.
The proliferation capacity of the spleen Ki-67 expression response cell was detected by flow cytometry. Two tubes of spleen single cell suspension were prepared and used to detect the proliferation of CD48^−CD11b^+ positive granulocytes and CD3^−NK1.1^+B220^−NK cells.
The surface staining procedure was the same as in Experimental Example 7.
Intracellular staining: after surface staining, intracellular staining was performed: 1) added 100 μL of fixed membrane-breaking solution Fixation Buffer, protected it from light at room temperature, fixed the membrane for 40 min; 2) added 1 mL of Permeabilization Buffer and washed twice, discarded the supernatant 3) added 1 μL of Ki-67-PE antibody at room temperature and protected it from light for 40 min; 4) same as step 2); and 5) used flow cytometer BD Calibar to measure the percentages of intracellular Ki-67 expression in CD48^−CD11b+ positive granulocytes, and CD3^−[…]B220^−NK cells, respectively.

[3] = system: CIA arthritis mice; assay: Micro-CT of joint structure / bone damage in CIA mice; conditions: 21 days after second immunization, MEAN ± SEM
Text: Test materials and animals: Consistent with Experimental Example 3. Anti-type II collagen antibody ELISA kit was purchased from Chondrex, Cytokine & Chemokine 36-Plex Mouse ProcartaPlex™ Panel 1A cytokine and chemokine detection kit was purchased from ThermoFisher.
Model preparation and drug administration: the drug dosage of each treatment group was the same as that of Experimental Example 3. After 21 days of the second immunization, the mice were anesthetized.
(1) Micro-CT technology was used to examine the effect of each drug group on the joint structure of CIA mice. After taking 3 mice from each group, the right hind limbs were taken immediately after neck dissection and fixed in 4% neutral formalin. After 2-3 days of fixation, a micro-CT scan was performed using a live animal imaging system. Extraction site: extracted the data of the area above the tibial plaque plate of the right hind limb of the mouse. 3 sets of data were taken. Size selection: the upper part of the tibial plaque plate (0.25*0.25*0.25); measurement indicators of the extracted bones: bone density, bone volume, bone volume fraction and number of bone trabeculae.

[4] = system: mouse model of ConA hepatitis; assay: Survival rate of hepatitis mouse model of ConA; conditions: ConA 25 mg/kg i.v.; drug by gavage (compatibility 7 g/kg, Cimicifugae rhizoma 2 g/kg, total phenolic acid 300 mg/kg crude drug, isoferulic acid 5 mg/kg); observed at 96 h; model group 20%
Text: Test materials: ConA was purchased from Sigma; isoferulic acid was purchased from Tianjin Fangfang Technology Co., Ltd.
as §1
Grouping: 50 C57BL/6 mice, male, 18-20 g, after 1 day of adaptive breeding, the mice were randomly divided into 5 groups of 10 in each group: ConA model group, Cimicifugae rhizoma compatibility group, Cimicifugae rhizoma group, Cimicifugae rhizoma total phenolic acid group and isoferulic acid group.
Model preparation and drug administration: 150 mg of ConA powder were weighed and dissolved in 40 mL of sterile PBS and left at room temperature for 1 to 2 hours; the solution was intermittently shaken gently to mix well. Low temperature ultrasound promoted dissolution (no more than 5 min each time) and avoided excessive foaming. After the solution was fully dissolved, the volume was adjusted to 50 mL, prepared to a concentration of 3 mg/mL, and filtered under pressure with a 0.45 μm filter. Mice were given a single intravenous injection at 25 mg/kg, with 100 μL per mouse. […]

With `COc1ccc(C=CC(=O)O)cc1O` [isoferulic acid, 3-hydroxy-4-methoxycinnamic acid] the arthritis index ([1]; Day 0 after second immunization, gavage once every 3 days (Cimicifugae rhizoma 2 g/kg, isoferulic acid 5 mg/kg), max 16 points) was 0 ± 0, the arthritis index ([1]; Day 3 after second immunization) was 0.43 ± 0.28 and the arthritis index ([1]; Day 6 after second immunization) was 1.0 ± 0.61. It also gave an arthritis index ([1]; Day 9 after second immunization) of 3.14 ± 0.77, an arthritis index ([1]; Day 12 after second immunization) of 5.14 ± 0.98 and an arthritis index ([1]; Day 15 after second immunization, CIA group 8.43) of 4.43. The arthritis index ([1]; Day 15 after second immunization, CIA group 8.43, listed as Isoferulic acid) was 5.71 ± 0.83, the “swelling of paw joints (FIG. 3)” value ([1]; pictures of front and hind paw joints, versus CIA arthritis mice) was “significantly reduced” and the “Proliferation of Granulocytes, bone marros” value [2] was 27.8 ± 8.2 %. The “Proliferation of Granulocytes, spleen” value [2] was 26.8 ± 12.5 %, the “Proliferation of NK cells, spleen” value [2] was 14 ± 9 % and the Bone density ([3]; area above tibial plate of right hind limb) was 9.5 ± 1.5 mg/cc. For the same compound, the Bone volume ([3]; right hind limb) was 0.0014 ± 0.0005 mm 3, the Bone volume fraction ([3]; right hind limb) was 0.095 ± 0.034 and the number of trabeculae ([3]; right hind limb) was 2.042 ± 0.572 1/mm. For the same compound, the “survival rate of mice” value [4] was 60%.
